According to patent US20230159620A1, “COMPOSITIONS AND METHODS OF TREATMENT FOR VASCULAR DISEASES AND THROMBOSIS” (Washington University, priority 2021, published 2023):

Tests used:
VSMCs = assay: VSMC proliferation assay (BrdU incorporation); assay type: cell-based, mouse
Description: Plates were UV sterilized before adding cells. […] For analysis of peritoneal macrophages, 4% thioglycolate-elicited peritoneal macrophages from Itg α9^MAC+/+ and Itg α9^MACfl/fl mice were suspended in BrdU dissolved in RPMI 1640 media containing 10% FBS. 2.5×10^4 cells were added to each well since peritoneal macrophages are smaller and have lower proliferation rates than VSMCs in culture.
Plates were ultraviolet (UV) sterilized before adding cells. […] Efficient Itgα9 knockdown was confirmed by qPCR.

AKT [1] = assay: AKT signaling immunoblot, platelets; assay type: cell-based, human; conditions: platelets pretreated with inhibitor before SVEP1
Description: Prior to performing signaling assays, cells were trypsinized, centrifuged, suspended in basal media, and counted using an automated hemocytometer. Cells were further diluted in basal media to an assay-dependent concentration. Cells were then incubated with gentle agitation for 60 minutes to prevent cell attachment and reduce basal signaling. PP1, Dynasore, MK-2206, and Rapamycin were diluted in DMSO and used in assay concentrations of 10 μM, 100 μM, 10 μM, and respectively, for the final 20-30 minutes of incubation in basal media. An equal volume of DMSO was used as the negative control condition. […] 1 μg Pearl 1 polyclonal antibody was added as a specific positive control. 20% growth media or 2% fetal bovine serum, labeled “Serum” in figures, was added as a non-specific positive control. The cells were centrifuged at 300G for 3 minutes with the exception of platelets, which were centrifuged at 500G for 5 minutes. The cells were then incubated at 37° C. for 8-45 minutes, depending on the cell type and pathway of interest. The cells were lysed in radioimmunoprecipitation buffer (RIPA) containing a cocktail of protease and phosphatase inhibitors and universal nuclease. Immunoblots were performed by standard techniques, as briefly follows. Protein content was determined using a bicinchoninic acid assay with BSA standards (#23225, Pierce BCA Protein Assay Kit). Cell lysates were then reduced with dithiothreitol (DTT) in lithium dodecyl sulfate (LDS) sample buffer (#NP0007, Invitrogen). Equal protein amounts were added to polyacrylamide gels (#4561086, BioRad) and electrophoresed prior to transferring to a nitrocellulose or polyvinylidene fluoride membrane (#1620260, BioRad). Membranes were blocked in 5% BSA/Tris-buffered saline (TBS) with 0.1% Tween 20 for 30 minutes. The indicated primary antibodies were incubated with the pre-blocked membranes overnight at 4° C. Membranes were washed with TBS with 0.1% Tween 20, probed with fluorescent secondary antibodies, and imaged. β-actin or β-tubulin served as a loading control.
(§1) Whole blood was collected by venipuncture into either heparin vacutainers (BD, Franklin Lakes) for whole blood experiments or acid-citrate-dextrose (ACD) vacutainers (BD, Franklin Lakes) for platelet isolation studies. For platelet isolation, samples were supplemented with apyrase (Sigma, St Louis) and prostaglandin E1 (Cayman Chemical, Ann Arbor), and platelet-rich plasma (PRP) was prepared by centrifugation of the ACD whole blood for 20 minutes at 200G. Platelets were isolated from the PRP by centrifugation for 10 minutes at 1000G and resuspended in modified Tyrode's buffer twice at desired platelet counts and kept at 37° C. until used. Isolated platelets were used within 2 hours of preparation.

AKT [2] = assay: AKT signaling immunoblot / phospho-array, HUVECs; assay type: cell-based, human; conditions: PP1 10 μM, Dynasore 100 μM, vs DMSO
Description: Cellular reagents were purchased from various commercial vendors. Primary human umbilical vein endothelial cells (HUVECs) were obtained from Cell Applications Inc. and cultured according to the manufacture's recommendations. Primary human coronary artery smooth muscle cells were obtained from Invitrogen and were cultured according to the manufacture's recommendations. 293T cells were obtained from ATCC and were cultured according to the manufacture's recommendations. Mouse primary smooth muscle cells were obtained and cultured as described previously. Predesigned Silencer Select siRNA constructs targeting Pearl 1 and negative control siRNA were obtained from ThermoFisher. Transfections were performed using RNAiMAX or Lipofectamine 3000 transfection reagents according to the manufacturer's protocols. Cells were used for signaling assays 48 hours after transfection; efficient Pearl 1 knockdown or Pearl 1 overexpression was confirmed by immunoblot assays.
Prior to performing signaling assays, cells were trypsinized, centrifuged, suspended in basal media, and counted using an automated hemocytometer. Cells were further diluted in basal media to an assay-dependent concentration. Cells were then incubated with gentle agitation for 60 minutes to prevent cell attachment and reduce basal signaling. PP1, Dynasore, MK-2206, and Rapamycin were diluted in DMSO and used in assay concentrations of 10 μM, 100 μM, 10 μM, and respectively, for the final 20-30 minutes of incubation in basal media. An equal volume of DMSO was used as the negative control condition. […] 1 μg Pearl 1 polyclonal antibody was added as a specific positive control. 20% growth media or 2% fetal bovine serum, labeled “Serum” in figures, was added as a non-specific positive control. The cells were centrifuged at 300G for 3 minutes with the exception of platelets, which were centrifuged at 500G for 5 minutes. The cells were then incubated at 37° C. for 8-45 minutes, depending on the cell type and pathway of interest. The cells were lysed in radioimmunoprecipitation buffer (RIPA) containing a cocktail of protease and phosphatase inhibitors and universal nuclease. Immunoblots were performed by standard techniques, as briefly follows. Protein content was determined using a bicinchoninic acid assay with BSA standards (#23225, Pierce BCA Protein Assay Kit). Cell lysates were then reduced with dithiothreitol (DTT) in lithium dodecyl sulfate (LDS) sample buffer (#NP0007, Invitrogen). Equal protein amounts were added to polyacrylamide gels (#4561086, BioRad) and electrophoresed prior to transferring to a nitrocellulose or polyvinylidene fluoride membrane (#1620260, BioRad). Membranes were blocked in 5% BSA/Tris-buffered saline (TBS) with 0.1% Tween 20 for 30 minutes. […]

mTOR = mTOR signaling immunoblot, platelets; assay type: cell-based, human; conditions: platelets pretreated with inhibitor before SVEP1
Description: Prior to performing signaling assays, cells were trypsinized, centrifuged, suspended in basal media, and counted using an automated hemocytometer. Cells were further diluted in basal media to an assay-dependent concentration. Cells were then incubated with gentle agitation for 60 minutes to prevent cell attachment and reduce basal signaling. […] An equal volume of DMSO was used as the negative control condition. […] 1 μg Pearl 1 polyclonal antibody was added as a specific positive control. 20% growth media or 2% fetal bovine serum, labeled “Serum” in figures, was added as a non-specific positive control. The cells were centrifuged at 300G for 3 minutes with the exception of platelets, which were centrifuged at 500G for 5 minutes. The cells were then incubated at 37° C. for 8-45 minutes, depending on the cell type and pathway of interest. The cells were lysed in radioimmunoprecipitation buffer (RIPA) containing a cocktail of protease and phosphatase inhibitors and universal nuclease. Immunoblots were performed by standard techniques, as briefly follows. […] Cell lysates were then reduced with dithiothreitol (DTT) in lithium dodecyl sulfate (LDS) sample buffer (#NP0007, Invitrogen). […] Membranes were blocked in 5% BSA/Tris-buffered saline (TBS) with 0.1% Tween 20 for 30 minutes. The indicated primary antibodies were incubated with the pre-blocked membranes overnight at 4° C. Membranes were washed with TBS with 0.1% Tween 20, probed with fluorescent secondary antibodies, and imaged. β-actin or β-tubulin served as a loading control.
as §1, with “Platelets were isolated from the PRP by centrifugation for 10 minutes at 1000G and resuspended in modified Tyrode's buffer twice at desired platelet counts and kept at 37° C. until used. Isolated platelets were used within 2 hours of preparation.” left out

[3] = Arterial blood pressure response to vasoactive agents; assay type: in vivo, mouse; conditions: venous administration, anesthetized Svep1+/+ and Svep1−/− mice
Description: Central arterial blood pressure and heart rate were measured under inhaled 1.5% isoflurane anesthesia and while mice were maintained at 37° C. using a heating pad and rectal thermometer, as done previously. Briefly, a midline incision was performed in the neck region; the thymus, muscle, and connective tissue were dissected away to isolate the right common carotid artery. After tying it distally and clamping it proximally, an incision was made in the right common carotid artery through which a Millar pressure transducer (model SPR-1000, Houston, Tex.) was introduced, the clamp was removed, and the transducer advanced to the ascending aorta. Once instrumentation was complete, arterial blood pressure (systolic, diastolic, and mean) and heart rate were recorded via the PowerLab® data acquisition system (ADlnstruments, Colorado Springs, Colo.). The average of a 3-minute period of stable recording was reported. Data were analyzed using LabChart® 8 for 673 MAC software (ADInstruments).
To assess the blood pressure response to vasoactive agents, after baseline blood pressure measurement, dissection was performed to visualize the left internal jugular (IJ) vein as done previously. Once identified, a small incision was made and PE-10 tubing was introduced and kept in place with a 6-0 silk suture. […]

What does the source list for `C[C@H](NC(=O)Cc1cc(F)cc(F)c1)C(=O)N[C@H](C(=O)OC(C)(C)C)c1ccccc1` [DAPT, reference compound]?
effect on cell proliferation in response to 10% fetal bovine serum (VSMCs; 25 μM DAPT): not significantly inhibited; effect on SVEP1-induced proliferation (VSMCs; 25 μM DAPT vs DMSO): completely abrogated

Which “effect of inhibitor on activation of AKT by SVEP1” value (AKT [1]) does the source give for `O=C(N/N=C/c1ccc(O)c(O)c1)c1cc2ccccc2cc1O` [Dynasore] here?
Its value is “partially abrogated”.

What about the “effect of inhibitor pretreatment on AKT activation by SVEP1 and Pearl 1 pAb” value (AKT [2]) of the same compound?
The value was “abrogated”.

What about the “dependence of SVEP1-induced p70S6K Thr 389 phosphorylation on the inhibited protein or process” value (“dependence … on the inhibited protein or process” below) (mTOR) of the same compound?
The value was “partially dependent”.

Which “effect of inhibitor on activation of AKT by SVEP1” value (AKT [1]) does the source give for `NC1(c2ccc(-c3nc4ccn5c(=O)[nH]nc5c4cc3-c3ccccc3)cc2)CCC1` [MK-2206] here?
The value was “completely abrogated”.

And the “dependence … on the inhibited protein or process” value (mTOR)?
The value was “partially dependent”.

With `Cc1ccc(-c2nn(C(C)(C)C)c3ncnc(N)c23)cc1` [PP1] as the compound, how does the “effect of inhibitor on activation of AKT by SVEP1” value (AKT [1]) read?
The value was “completely abrogated”.

And the “effect of inhibitor pretreatment on AKT activation by SVEP1 and Pearl 1 pAb” value (AKT [2])?
Its value is “abrogated”.

And the “dependence … on the inhibited protein or process” value (mTOR)?
The value was “dependent”.

With `CNC[C@H](O)c1cccc(O)c1` [phenylephrine] as the compound, how does the “change in blood pressure” value [3] read?
Its value is “dose-dependent manner”.

For angiotensin II, which “change in blood pressure” value [3] is on record?
The value was “dose-dependent manner”.
